Patent US20210009542A1 (Calico Life Sciences LLC, priority 2018, published 2021)
Like-named read-outs stand apart in the source and are kept apart here.

How the values were obtained:
[1] = molecular target: T1, His tagged PTPN2 (TC45) protein (Homo sapiens, UniProt P17706); experiment: Mobility shift assay (MSA) for potency of PTPN2 inhibitors; format: biochemical; conditions: read-out: PTPN2 MSA IC50
T1 construct: made in house
T1 sequence (P17706 with tags, fused parts or gaps isoform P17706-2): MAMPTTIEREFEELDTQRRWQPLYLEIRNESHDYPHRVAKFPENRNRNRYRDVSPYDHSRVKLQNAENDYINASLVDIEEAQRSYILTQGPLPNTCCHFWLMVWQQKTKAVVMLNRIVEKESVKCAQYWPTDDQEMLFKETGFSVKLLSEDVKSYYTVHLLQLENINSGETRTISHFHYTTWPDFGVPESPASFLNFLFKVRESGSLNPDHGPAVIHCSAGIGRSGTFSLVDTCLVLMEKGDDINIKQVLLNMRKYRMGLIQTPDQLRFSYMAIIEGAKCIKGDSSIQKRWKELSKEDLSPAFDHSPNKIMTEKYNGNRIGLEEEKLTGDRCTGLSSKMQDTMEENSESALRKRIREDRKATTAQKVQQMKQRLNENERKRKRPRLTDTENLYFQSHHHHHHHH
In short: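 His-tagged PTPN2 TC45 (0.5 nM) was preincubated with compound (12-point, 1:3) for 10 min at room temperature in 50 mM HEPES pH 7.5, 1 mM EGTA, 10 mM EDTA, 0.01% Tween 20, 2 mM DTT. OG488-labelled phospho-insulin-receptor peptide ([…]) was then added for 10 min. After quenching, dephosphorylation was measured by microfluidic mobility shift and IC50 derived from % inhibition.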

[2] = system: B16F10 mouse melanoma cells; experiment: B16F10 IFNγ-induced cellular growth inhibition assay; format: cell-based; conditions: Mus musculus, B16-F10, 33 μM compound
In short: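 B16F10 cells (500/well, DMEM + 10% FBS) dosed in triplicate at 100 μM to 0.001 μM (0.1% DMSO) with or without 0.5 ng/mL final mouse IFNγ. Confluence imaged every 6 h for 5 days; % growth inhibition calculated versus DMSO/with-IFNγ control once DMSO/no-IFNγ wells exceeded 95% confluence.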

[3] = molecular target: T2, His tagged full-length PTP1B protein (Homo sapiens, UniProt P18031); experiment: Mobility shift assay (MSA) for potency of PTP1B inhibitors; format: biochemical
T2 construct: made in house
T2 sequence (P18031 with tags, fused parts or gaps): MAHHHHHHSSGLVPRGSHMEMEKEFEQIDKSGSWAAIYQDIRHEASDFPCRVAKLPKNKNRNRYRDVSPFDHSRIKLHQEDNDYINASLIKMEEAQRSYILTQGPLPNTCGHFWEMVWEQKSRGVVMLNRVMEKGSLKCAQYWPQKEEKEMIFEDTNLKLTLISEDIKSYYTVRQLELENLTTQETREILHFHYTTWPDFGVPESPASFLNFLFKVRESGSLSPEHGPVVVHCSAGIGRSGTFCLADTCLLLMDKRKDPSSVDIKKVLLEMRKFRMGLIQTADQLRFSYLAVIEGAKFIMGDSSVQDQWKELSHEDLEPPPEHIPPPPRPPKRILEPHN
Protocol: The enzymatic assay used to determine activity is a mobility shift assay using a LabChip EZ Reader by Caliper Life Sciences. The enzymatic reaction was carried out in assay buffer (50 mM HEPES pH 7.5, 1 mM EGTA, 10 mM EDTA, 0.01% Tween® 20, and 2 mM DTT). […] The enzyme (at 0.5 nM) was incubated with compound for 10 minutes at room temperature. […] The % inhibition was then used to calculate the IC50 values.

[4] = +0.5 ng/mL IFNγ, relative to DMSO control, read-out: % B16F10 growth inhibition (+0.5 ng/mL IFNγ) @ 33 μM
[5] = no IFNγ, read-out: % B16F10 growth inhibition (no IFNγ) @ 33 μM

| SMILES | IC50 [1] | inhibition at 33 µM [2, 4] | inhibition at 33 µM [2, 5] | IC50 [3] |
| --- | --- | --- | --- | --- |
| CC[C@H]1C[C@@H]1COc1ccc2cc(O)c(N3CC(=O)NS3(=O)=O)c(F)c2c1 (racemic) [Compound 218, 5-(7-{[rac-(1R,2R)-2-ethylcyclopropyl]methoxy}-1-fluoro-3-hydroxynaphthalen-2-yl)-1λ^6,2,5-thiadiazolidine-1,1,3-trione] | 1 to 10 nM | 25 to 59% | < 25% | 1 to 10 nM |
| O=C1CN(c2c(O)cc3ccc(C4CCN(S(=O)(=O)C5CC5)C4)cc3c2F)S(=O)(=O)N1 (stereo not shown) [Compound 101, 5-{7-[1-(cyclopropanesulfonyl)pyrrolidin-3-yl]-1-fluoro-3-hydroxynaphthalen-2-yl}-1λ^6,2,5-thiadiazolidine-1,1,3-trione] | < 1 nM | 60 to 90% | < 25% | 1 to 10 nM |
| O=C1CN(c2c(O)cc3ccc(C4CCNC4)cc3c2F)S(=O)(=O)N1 (stereo not shown) [Compound 102, 5-[1-fluoro-3-hydroxy-7-(pyrrolidin-3-yl)naphthalen-2-yl]-1λ^6,2,5-thiadiazolidine-1,1,3-trione] | 1 to 10 nM | 60 to 90% | < 25% | 10 to 100 nM |
| O=C1CN(c2c(O)cc3ccc(OCCC4CCNCC4)cc3c2F)S(=O)(=O)N1 [Compound 108, 5-{1-fluoro-3-hydroxy-7-[2-(piperidin-4-yl)ethoxy]naphthalen-2-yl}-1λ^6,2,5-thiadiazolidine-1,1,3-trione] | 1 to 10 nM | 25 to 59% | < 25% | 1 to 10 nM |
| CC(C)N1CCC(F)(COc2ccc3cc(O)c(N4CC(=O)NS4(=O)=O)c(F)c3c2)C1 (stereo not shown) [Compound 109, 5-(1-fluoro-7-{[3-fluoro-1-(propan-2-yl)pyrrolidin-3-yl]methoxy}-3-hydroxynaphthalen-2-yl)-1λ^6,2,5-thiadiazolidine-1,1,3-trione] | 1 to 10 nM | < 25% | < 25% | 10 to 100 nM |
| O=C1CN(c2c(O)cc3ccc(OCC4(F)CCNC4)cc3c2F)S(=O)(=O)N1 (stereo not shown) [Compound 110, 5-{1-fluoro-7-[(3-fluoropyrrolidin-3-yl)methoxy]-3-hydroxynaphthalen-2-yl}-1λ^6,2,5-thiadiazolidine-1,1,3-trione] | 1 to 10 nM | 60 to 90% | < 25% | 10 to 100 nM |
| NC12CC(CCOc3ccc4cc(O)c(N5CC(=O)NS5(=O)=O)c(F)c4c3)(C1)C2 [Compound 121, 5-{7-[2-(3-aminobicyclo[1.1.1]pentan-1-yl)ethoxy]-1-fluoro-3-hydroxynaphthalen-2-yl}-1λ^6,2,5-thiadiazolidine-1,1,3-trione] | 1 to 10 nM | 60 to 90% | < 25% | 1 to 10 nM |
| CN(C)CCNc1ccc2cc(O)c(N3CC(=O)NS3(=O)=O)c(F)c2c1 [Compound 122, 5-(7-{[2-(dimethylamino)ethyl]amino}-1-fluoro-3-hydroxynaphthalen-2-yl)-1λ^6,2,5-thiadiazolidine-1,1,3-trione] | 10 to 100 nM | 60 to 90% | < 25% | 10 to 100 nM |
| CS(=O)(=O)N1CCC(Nc2ccc3cc(O)c(N4CC(=O)NS4(=O)=O)c(F)c3c2)C1 (stereo not shown) [Compound 126, 5-(1-fluoro-3-hydroxy-7-{[1-(methanesulfonyl)pyrrolidin-3-yl]amino}naphthalen-2-yl)-1λ^6,2,5-thiadiazolidine-1,1,3-trione] | 1 to 10 nM | 60 to 90% | < 25% | 1 to 10 nM |
| CN(C)CCOc1ccc2cc(O)c(N3CC(=O)NS3(=O)=O)c(F)c2c1 [Compound 131, 5-{7-[2-(dimethylamino)ethoxy]-1-fluoro-3-hydroxynaphthalen-2-yl}-1λ^6,2,5-thiadiazolidine-1,1,3-trione] | 1 to 10 nM | > 90% | < 25% | 10 to 100 nM |
| O=C1CN(c2c(O)cc3ccc(OCC(O)C4CC4)cc3c2F)S(=O)(=O)N1 (stereo not shown) [Compound 150, 5-[7-(2-cyclopropyl-2-hydroxyethoxy)-1-fluoro-3-hydroxynaphthalen-2-yl]-1λ^6,2,5-thiadiazolidine-1,1,3-trione] | 1 to 10 nM | > 90% | < 25% | 1 to 10 nM |
| CC(O)CCOc1ccc2cc(O)c(N3CC(=O)NS3(=O)=O)c(F)c2c1 (stereo not shown) [Compound 156, 5-[1-fluoro-3-hydroxy-7-(3-hydroxybutoxy)naphthalen-2-yl]-1λ^6,2,5-thiadiazolidine-1,1,3-trione] | < 1 nM | 60 to 90% | < 25% | 1 to 10 nM |
| CC(C)CC(=O)Nc1ccc2cc(O)c(N3CC(=O)NS3(=O)=O)c(F)c2c1 [Compound 157, N-[8-fluoro-6-hydroxy-7-(1,1,4-trioxo-1λ^6,2,5-thiadiazolidin-2-yl)naphthalen-2-yl]-3-methylbutanamide] | 1 to 10 nM | 60 to 90% | < 25% | 10 to 100 nM |
| O=C1CN(c2c(O)cc3ccc(OCCC4CC4(F)F)cc3c2F)S(=O)(=O)N1 (stereo not shown) [Compound 192, 5-{7-[2-(2,2-difluorocyclopropyl)ethoxy]-1-fluoro-3-hydroxynaphthalen-2-yl}-1λ^6,2,5-thiadiazolidine-1,1,3-trione] | < 1 nM | 60 to 90% | < 25% | < 1 nM |
| O=C1CN(c2c(O)cc3ccc(OCC4CC4(F)F)cc3c2F)S(=O)(=O)N1 (stereo not shown) [Compound 210, 5-{7-[(2,2-difluorocyclopropyl)methoxy]-1-fluoro-3-hydroxynaphthalen-2-yl}-1λ^6,2,5-thiadiazolidine-1,1,3-trione] | < 1 nM | > 90% | < 25% | 1 to 10 nM |
| O=C1CN(c2c(O)cc3ccc(OCCC4CCCO4)cc3c2F)S(=O)(=O)N1 (stereo not shown) [Compound 213, 5-{1-fluoro-3-hydroxy-7-[2-(oxolan-2-yl)ethoxy]naphthalen-2-yl}-1λ^6,2,5-thiadiazolidine-1,1,3-trione] | < 1 nM | 60 to 90% | < 25% | 1 to 10 nM |
| O=C1CN(c2c(O)cc3ccc(C4CCCOC4)cc3c2F)S(=O)(=O)N1 (stereo not shown) [Compound 249, 5-[1-fluoro-3-hydroxy-7-(oxan-3-yl)naphthalen-2-yl]-1λ^6,2,5-thiadiazolidine-1,1,3-trione] | 1 to 10 nM | 60 to 90% | < 25% | > 100 nM |
| O=C1CN(c2c(O)cc3ccc(OCC4CCCO4)cc3c2F)S(=O)(=O)N1 (stereo not shown) [Compound 254, 5-{1-fluoro-3-hydroxy-7-[(oxolan-2-yl)methoxy]naphthalen-2-yl}-1λ^6,2,5-thiadiazolidine-1,1,3-trione] | 1 to 10 nM | 60 to 90% | < 25% | > 100 nM |
| CCCC(C)S(=O)(=O)N1CC=C(c2ccc3cc(O)c(N4CC(=O)NS4(=O)=O)c(F)c3c2)C1 (stereo not shown) [Compound 294, 5-{1-fluoro-3-hydroxy-7-[1-(pentane-2-sulfonyl)-2,5-dihydro-1H-pyrrol-3-yl]naphthalen-2-yl}-1λ^6,2,5-thiadiazolidine-1,1,3-trione] | < 1 nM | – | – | < 1 nM |
| CC(C)S(=O)(=O)N1CCC(c2ccc3cc(O)c(N4CC(=O)NS4(=O)=O)c(F)c3c2)C1 (stereo not shown) [Compound 308, 5-{1-fluoro-3-hydroxy-7-[1-(propane-2-sulfonyl)pyrrolidin-3-yl]naphthalen-2-yl}-1λ^6,2,5-thiadiazolidine-1,1,3-trione] | < 1 nM | – | – | 1 to 10 nM |
